In publication PMC11594562, “Novel Peptide–Drug Conjugates with Dual Anticancer Activity” (International Journal of Molecular Sciences, 2024):
Like-named read-outs stand apart in the source and are kept apart here. Residues, ends and D or L forms follow the SMILES beside them.

Tests used:
TDP1 = biological target: T1, TDP1 (Homo sapiens, UniProt Q9NUW8); test: biochemical; type: biochemical; settings: for Increase in TDP1 IC50 compared to parent TDP1 inhibitor: conjugate 7 vs 4, conjugate 8 vs 5
T1 construct: made in house; host or cells: E. coli
Method: These conjugates and their individual components were tested in a real-time fluorescent assay of TDP1 inhibition.
Recombinant TDP1 protein was expressed in E. coli (the pET 16B plasmid containing TDP1 cDNA was kindly provided by Dr. K.W. Caldecott, University of Sussex, United Kingdom) and isolated as described in [60]. The final volume (200 μL) of the reaction mixture contained TDP1 reaction buffer (50 mM Tris-HCl, pH 8.0, 50 mM NaCl, 7 mM β-mercaptoethanol), 50 nM oligonucleotide substrate, and varied concentrations of the tested compounds. Purified TDP1 was added at a final concentration of 1.5 nM. The TDP1 reaction mixtures were incubated at a constant temperature of 26 °C in a POLARstar OPTIMA fluorimeter (BMG LABTECH, Offenburg, Germany). The fluorescence intensity was measured (Ex. 485/Em. 520 nm) every 1 min for 10 minutes. The efficiency of TDP1 inhibition was evaluated by comparing the rate of increase in the fluorescence of the biosensor in the presence of compound 4 or 5 to that of DMSO (1.5%) in control wells. IC50 values were determined using an eleven-point concentration response curve by MARS Data Analysis 2.0 (BMG LABTECH), and the slope during the linear phase was calculated. The IC50 measurements were carried out in at least three independent experiments.

[1] = system: MCF-7 (adenocarcinoma) cells; test: MTT cytotoxicity assay, MCF-7 cells; settings: for GI50: Homo sapiens, MCF7, 48 h, read-out: Cytotoxic dose GI50; for Cytotoxic dose GI80 / Cytotoxic dose GI90: MCF-7, 48 h, MTT
Method: (§1) Next, the conjugates and their parent agents were evaluated in a cytotoxicity assay. Human glioblastoma (SNB19, T98G) and adenocarcinoma (MCF-7) cell lines were used in this study.
(§2) Human cancer cells of the SNB19, T98G (cells of human glioblastoma), and MCF-7 (adenocarcinoma) lines, along with cells derived from the kidney of an African green monkey (Vero), were used in this study. These cell lines were obtained from the cell collection of the State Research Center for Virology and Biotechnology “Vector” of Rospotrebnadzor, Koltsovo, Novosibirsk Region. They were cultured in DMEM/F12 medium containing 10% foetal bovine serum, L-glutamine (2 mmol/L), and gentamicin (80 µg/mL) in a CO2 incubator at 37 °C. The tested compounds were dissolved in DMSO (4 and 5) or H2O (6, 7, and 8) and added to the cellular culture at the required concentrations. Three wells were used for each concentration. The cells that were incubated without the compounds were used as controls. Cells were placed in 96-well microplates and cultivated at 37 °C in 5% CO2/95% air for 48 h. The cell viability was assessed through an MTT [3-(4,5-dimethylthiazol-2-yl)-2,5-phenyl-2H-tetrazolium bromide] conversion assay, where 1% MTT was added to each well. Four hours later, the medium was removed, leaving the formazan crystals, and isopropanol was added and mixed for 15 min. The optical density of the samples was measured on a TECAN Sunrise multi-well spectrophotometer at a wavelength of 570 nm, with a reference of 670 nm. The 50% cytotoxic dose (GI50) of each compound (i.e., the compound concentration that lowers the amount of cells to 50% in a culture, or decreases the optical density twofold as compared to the control wells) was calculated from the obtained data. Statistical processing of the results was performed using the Microsoft Excel-2007, […] 6.0, and GraphPad Prism 5.0 programs.

SNB19 glioblastoma cells = test: MTT cytotoxicity assay, SNB19 cells; settings: for GI50: Homo sapiens, SNB-19, 48 h, read-out: Cytotoxic dose GI50; for Cytotoxic dose GI80 / Cytotoxic dose GI90: SNB19, 48 h, MTT
Method: as §1, §2

T98G glioblastoma cells = test: MTT cytotoxicity assay, T98G cells; settings: T98G, 48 h; for GI50: Homo sapiens, read-out: Cytotoxic dose GI50; for Cytotoxic dose GI80 / Cytotoxic dose GI90: MTT
Method: as §1, §2

[2] = MTT cytotoxicity assay, non-malignant Vero cells; settings: African green monkey
Description: (§3) Against the T98G glioblastoma cells, the conjugation yields activities that are intermediate between those of the usnic acid and peptide components for both the hydrazinothiazole- and benzylidenefuranone-based candidates (4 and 5, respectively).
as §2

Vero cells = test: MTT cytotoxicity assay, non-malignant Vero cells; settings: Vero, 48 h, MTT
Description: as §3, §2

[3] = Solubility in water / DMSO; type: physicochemical; settings: water vs DMSO
Description: Three wells were used for each concentration.

[4] = biological target: Tyrosyl-DNA-phosphodiesterase 1 (TDP1); settings: Figure 1; cited from earlier work
[5] = MTT cytotoxicity assay, MCF-7 cells; settings: human, MCF-7 adenocarcinoma cells
Method: as §1, §2

[6] = MTT cytotoxicity assay, SNB19 cells; settings: human, SNB19 glioblastoma cells
Method: as §1, §2

[7] = MTT cytotoxicity assay, T98G cells; settings: human
Method: as §1, §2

MCF-7 cells = settings: native L-K6 sequence; read-out: IC50 (cytotoxicity of native sequence); cited from earlier work
[8] = Vero cells (non-malignant kidney cell line)
[9] = recombinant TDP1 1.5 nM, 50 nM substrate, 26 °C

T1 sequence (Q9NUW8 whole entry): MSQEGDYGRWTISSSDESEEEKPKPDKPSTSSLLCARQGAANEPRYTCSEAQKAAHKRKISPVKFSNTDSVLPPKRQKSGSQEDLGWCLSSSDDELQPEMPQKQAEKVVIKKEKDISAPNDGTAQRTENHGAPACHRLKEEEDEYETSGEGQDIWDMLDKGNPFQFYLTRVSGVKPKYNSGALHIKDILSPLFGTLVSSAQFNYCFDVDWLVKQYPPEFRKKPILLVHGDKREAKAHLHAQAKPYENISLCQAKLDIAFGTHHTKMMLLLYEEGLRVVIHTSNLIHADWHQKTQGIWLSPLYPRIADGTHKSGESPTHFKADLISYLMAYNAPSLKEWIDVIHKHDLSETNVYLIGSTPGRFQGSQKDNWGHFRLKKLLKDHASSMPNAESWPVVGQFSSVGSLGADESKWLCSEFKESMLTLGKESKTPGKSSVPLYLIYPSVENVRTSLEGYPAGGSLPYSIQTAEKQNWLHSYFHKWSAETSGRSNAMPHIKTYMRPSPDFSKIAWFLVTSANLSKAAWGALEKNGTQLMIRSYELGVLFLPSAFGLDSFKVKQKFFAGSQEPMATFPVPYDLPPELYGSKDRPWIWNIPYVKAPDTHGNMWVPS

Compound | Cytotoxic dose GI80 [1] [µM] | Cytotoxic dose GI90 [1] [µM] | Cytotoxic dose GI80 (SNB19 glioblastoma cells) [µM] | Cytotoxic dose GI90 (SNB19 glioblastoma cells) [µM] | Cytotoxic dose GI80 (T98G glioblastoma cells) [µM] | Cytotoxic dose GI90 (T98G glioblastoma cells) [µM] | Cytotoxic dose GI80 (Vero cells) [µM] | Cytotoxic dose GI90 (Vero cells) [µM] | IC50 [4] [µM] | GI50 at 48 h [5] [µM] | GI50 at 48 h [6] [µM] | GI50 at 48 h [7] [µM] | GI50 at 48 h ([2]; Vero cells) [µM] | also measured
CC(=O)C1=C(O)C=C2Oc3c(-c4csc(N/N=C/c5ccc(Br)cc5)n4)c(O)c(C)c(O)c3[C@@]2(C)C1=O [Compound 4] | 4.7 ± 0.21 | 5.5 ± 0.41 | 61 ± 1.78 | 83 ± 1.87 | 51 ± 1.08 | 90 ± 3.94 | 48 ± 16.76 | >100 | 0.026 |  |  |  |  | IC50 (TDP1): 0.026 ± 0.011 µM; GI50 [1]: 2.8 ± 0.07 µM; GI50 (SNB19 glioblastoma cells): 20.5 ± 2.27 µM; GI50 (T98G glioblastoma cells): 10.1 ± 0.67 µM; GI50 at 48 h [2, 8]: 4.1 ± 1.66 µM; Solubility [3]: require DMSO for solubility
CC(=O)C1=C(O)C=C2Oc3c(C(=O)CSC#N)c(O)c(C)c(O)c3[C@@]2(C)C1=O [Compound 3, reference compound] |  |  |  |  |  |  |  |  | 1.16 |  |  |  |  | 
CC(=O)C1=C(O)C=C2Oc3c4c(c(C)c(O)c3[C@@]2(C)C1=O)O/C(=C\c1ccc(Br)cc1)C4=O [Compound 5] | 3.9 ± 0.87 | 4.7 ± 1.59 | >100 | >100 | >100 | >100 | >100 | >100 | 0.15 |  |  |  |  | IC50 (TDP1; [9]): 0.15 ± 0.03 µM; GI50 [1]: 2.2 ± 0.31 µM; GI50 (SNB19 glioblastoma cells): > 100 µM; GI50 (T98G glioblastoma cells): 21 ± 2.6 µM; GI50 at 48 h [2, 8]: > 100 µM; Solubility [3]: require DMSO for solubility
CC[C@H](C)[C@H](NC(=O)CNN)C(=O)N[C@@H](CCCCN)C(=O)N[C@@H](CCCCN)C(=O)N[C@H](C(=O)N[C@@H](CC(C)C)C(=O)N[C@@H](CO)C(=O)N[C@@H](CCCCN)C(=O)N[C@H](C(=O)N[C@@H](CCCCN)C(=O)N[C@@H](CCCCN)C(=O)N[C@@H](CC(C)C)C(=O)N[C@@H](CC(C)C)C(=O)N[C@@H](CCCCN)C(N)=O)[C@@H](C)CC)[C@@H](C)CC [Compound 6] (HELM PEPTIDE1{[NNCC(=O)[*:2]].I.K.K.I.L.S.K.I.K.K.L.L.K.[am]}$$$$V2.0) | 81 ± 16 | >100 | >100 | >100 | >100 | >100 | >100 | >100 |  | 39 ± 6.08 | > 100 | > 100 | 64 ± 13.7 | IC50 (TDP1; [9]): 1.8 ± 0.6 µM
CC(=O)c1c(O)c(C)c(O)c2c1OC1=CC(=O)/C(=C(/C)NCCCc3cc(C(C)(C)C)c(O)c(C(C)(C)C)c3)C(=O)[C@@]12C [Compound 2, reference compound] |  |  |  |  |  |  |  |  | 0.16 |  |  |  |  | 
CC[C@H](C)[C@H](NC(=O)Cn1nc(C)c2c1C=C1Oc3c(-c4csc(N/N=C/c5ccc(Br)cc5)n4)c(O)c(C)c(O)c3[C@@]1(C)C2=O)C(=O)N[C@@H](CCCCN)C(=O)N[C@@H](CCCCN)C(=O)N[C@H](C(=O)N[C@@H](CC(C)C)C(=O)N[C@@H](CO)C(=O)N[C@@H](CCCCN)C(=O)N[C@H](C(=O)N[C@@H](CCCCN)C(=O)N[C@@H](CCCCN)C(=O)N[C@@H](CC(C)C)C(=O)N[C@@H](CC(C)C)C(=O)N[C@@H](CCCCN)C(N)=O)[C@@H](C)CC)[C@@H](C)CC [Compound 7] (HELM PEPTIDE1{[Cc1nn(CC(=O)[*:2])c2c1C(=O)[C@@]1(C)C(=C2)Oc2c(-c3csc(N/N=C/c4ccc(Br)cc4)n3)c(O)c(C)c(O)c21].I.K.K.I.L.S.K.I.K.K.L.L.K.[am]}$$$$V2.0) | >100 | >100 | 68 ± 3.34 | >100 | 82 ± 1.78 | >100 | >100 | >100 |  | 65 ± 15.3 | 18 ± 0.35 | 42 ± 3.02 | 33 ± 3.53 | Increase in TDP1 IC50 compared to parent TDP1 inhibitor (TDP1): approximately 6.5 fold
L-K6 (IKKILSKIKKLLK; HELM PEPTIDE1{[NNCC(=O)[*:2]].I.K.K.I.L.S.K.I.K.K.L.L.K.[am]}$$$$V2.0; N-terminus assumed; SMILES CC[C@H](C)[C@H](NC(=O)CNN)C(=O)N[C@@H](CCCCN)C(=O)N[C@@H](CCCCN)C(=O)N[C@H](C(=O)N[C@@H](CC(C)C)C(=O)N[C@@H](CO)C(=O)N[C@@H](CCCCN)C(=O)N[C@H](C(=O)N[C@@H](CCCCN)C(=O)N[C@@H](CCCCN)C(=O)N[C@@H](CC(C)C)C(=O)N[C@@H](CC(C)C)C(=O)N[C@@H](CCCCN)C(N)=O)[C@@H](C)CC)[C@@H](C)CC) |  |  |  |  |  |  |  |  |  |  |  |  |  | IC50 (MCF-7 cells): 23 µM
CC[C@H](C)[C@H](NC(=O)Cn1nc(C)c2c1C=C1Oc3c4c(c(C)c(O)c3[C@@]1(C)C2=O)O/C(=C\c1ccc(Br)cc1)C4=O)C(=O)N[C@@H](CCCCN)C(=O)N[C@@H](CCCCN)C(=O)N[C@H](C(=O)N[C@@H](CC(C)C)C(=O)N[C@@H](CO)C(=O)N[C@@H](CCCCN)C(=O)N[C@H](C(=O)N[C@@H](CCCCN)C(=O)N[C@@H](CCCCN)C(=O)N[C@@H](CC(C)C)C(=O)N[C@@H](CC(C)C)C(=O)N[C@@H](CCCCN)C(N)=O)[C@@H](C)CC)[C@@H](C)CC [Compound 8] (HELM PEPTIDE1{[Cc1nn(CC(=O)[*:2])c2c1C(=O)[C@@]1(C)C(=C2)Oc2c3c(c(C)c(O)c21)O/C(=C\c1ccc(Br)cc1)C3=O].I.K.K.I.L.S.K.I.K.K.L.L.K.[am]}$$$$V2.0) | 72 ± 2.4 | >100 | 56 ± 0.7 | 85 ± 2.32 | 80 ± 2.86 | >100 | >100 | >100 |  | 36 ± 1.24 | 16.5 ± 0.35 | 38 ± 1.22 | 18 ± 3.18 | Increase in TDP1 IC50 compared to parent TDP1 inhibitor (TDP1): ~2.3 fold; GI50 at 48 h ([6]; Cytotoxic dose GI50, SNB19, 48 h, MTT): 16 µM
